Data: patent publication US12558428B2, “Heterobifunctional compounds and their use in treating disease” (Halda Therapeutics OpCo, Inc., priority 2024, dated 2026)

Assays:
Type in all cases: cell-based
[1] = system: MCF7 cells (ATCC #HTB-22); assay: Cellular growth inhibition assay, MCF7 cells purchased from ATCC; conditions: Homo sapiens, MCF7, 144 h, Table 8-A; MCF7 cells purchased from ATCC; six days; CellTiter-Glo; read-out: GI50
Procedure, shortened: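 GI50 values come from a four-parameter fit of CellTiter-Glo 2.0 luminescence after six days of compound exposure at 37° C. Seeding density depended on the source: 225 cells/well for ECACC MCF7, 1,500 for ATCC. Medium was RPMI 1640 with 10% FBS and 0.2 U/ml insulin.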

[2] = system: T-Rex 293 cells lacking increased expression of estrogen receptor alpha protein; assay: Cellular growth inhibition assay, T-Rex 293 cells, (−) doxycycline; conditions: T-REx-293, 72 h, Table 7-A; T-Rex 293 cells without doxycycline (lacking increased ERα expression); 72 hours; CellTiter-Glo; read-out: (−) Dox GI50
Procedure, shortened: (§1)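 Cells of an inducible ERα-expressing T-Rex 293 clone are seeded in charcoal-dextran FBS medium with or without 3 ng/mL doxycycline, then treated after 24 h with compound dilutions (0.5% DMSO) for 72 h. Growth inhibition is measured by CellTiter-Glo luminescence and expressed as GI50.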

[3] = system: T-Rex 293 cells having increased expression of estrogen receptor alpha protein; assay: Cellular growth inhibition assay, T-Rex 293 cells, (+) doxycycline; conditions: T-REx-293, 72 h, Table 7-A; T-Rex 293 cells with doxycycline (increased ERα expression); 72 hours; CellTiter-Glo; read-out: (+) Dox GI50
Procedure, shortened: as §1

Row | SMILES | GI50 [1] [nM] | GI50 [2] [nM] | GI50 [3] [nM]
1 | Cc1sc2c(c1C)C(c1ccc(N3CC4(CC(CN5CCN(c6cc(F)c([C@@H]7c8ccc(O)cc8CC[C@@H]7c7ccccc7)c(F)c6)CC5)C4)C3)cc1)=N[C@@H](C)c1nnc(C)n1-2 [III-277] | < 50 | 500 to 2500 | < 50
2 | Cc1sc2c(c1C)C(c1ccc(N3CC4(CC(CN5CCN(c6cc(F)c([C@H]7c8ccc(O)cc8CC[C@H]7c7ccccc7)c(F)c6)CC5)C4)C3)cc1)=N[C@@H](C)c1nnc(C)n1-2 [III-278] | 50 to 500 | 500 to 2500 | 50 to 500
3 | Cc1sc2c(c1C)C(c1ccc(N3CC4(C3)CC(O)(CN3CCN(c5cc(F)c([C@@H]6c7ccc(O)cc7CC[C@@H]6c6ccc(F)cc6)c(F)c5)CC3)C4)cc1)=N[C@@H](C)c1nnc(C)n1-2 [III-279] | < 50 | 500 to 2500 | < 50
4 | Cc1sc2c(c1C)C(c1ccc(N3CC4(C3)CC(O)(CN3CCN(c5cc(F)c([C@H]6c7ccc(O)cc7CC[C@H]6c6ccc(F)cc6)c(F)c5)CC3)C4)cc1)=N[C@@H](C)c1nnc(C)n1-2 [III-280] | 50 to 500 | 500 to 2500 | 50 to 500
5 | Cc1sc2c(c1C)C(c1ccc(N3CC4(CC(CN5CCN(c6ccc([C@H]7c8ccc(O)cc8CC[C@H]7c7ccc(F)cc7)cc6F)CC5)C4)C3)cc1)=N[C@@H](C)c1nnc(C)n1-2 [III-281] | 500 to 2500 | 500 to 2500 | 50 to 500
6 | Cc1sc2c(c1C)C(c1ccc(N3CC4(CC(CN5CCN(c6ccc([C@@H]7c8ccc(O)cc8CC[C@@H]7c7ccc(F)cc7)cc6F)CC5)C4)C3)cc1)=N[C@@H](C)c1nnc(C)n1-2 [III-282] | < 50 | 50 to 500 | < 50
7 | Cc1cc([C@H]2c3ccc(O)cc3CC[C@H]2c2ccc(F)cc2)ccc1N1CCN(CC2(O)CCN(c3ccc(C4=N[C@@H](C)c5nnc(C)n5-c5sc(C)c(C)c54)cc3)CC2)CC1 [III-283] | 50 to 500 | 500 to 2500 | 50 to 500
8 | Cc1cc([C@@H]2c3ccc(O)cc3CC[C@@H]2c2ccc(F)cc2)ccc1N1CCN(CC2(O)CCN(c3ccc(C4=N[C@@H](C)c5nnc(C)n5-c5sc(C)c(C)c54)cc3)CC2)CC1 [III-284] | 50 to 500 | 500 to 2500 | 50 to 500
9 | Cc1cc(N2CCN(CC3(O)CCN(c4ccc(C5=N[C@@H](C)c6nnc(C)n6-c6sc(C)c(C)c65)cc4)CC3)CC2)c(F)cc1[C@H]1c2ccc(O)cc2CC[C@H]1c1ccccc1 [III-285] | 50 to 500 | 50 to 500 | 50 to 500
10 | Cc1cc(N2CCN(CC3(O)CCN(c4ccc(C5=N[C@@H](C)c6nnc(C)n6-c6sc(C)c(C)c65)cc4)CC3)CC2)c(F)cc1[C@@H]1c2ccc(O)cc2CC[C@@H]1c1ccccc1 [III-286] | < 50 | 500 to 2500 | < 50
11 | Cc1cc([C@@H]2c3ccc(O)cc3CC[C@@H]2c2ccccc2)c(F)cc1N1CCN(CC2(O)CCN(c3ccc(C4=N[C@@H](C)c5nnc(C)n5-c5sc(C)c(C)c54)cc3)CC2)CC1 [III-287] | 50 to 500 | 500 to 2500 | < 50
12 | Cc1cc([C@H]2c3ccc(O)cc3CC[C@H]2c2ccccc2)c(F)cc1N1CCN(CC2(O)CCN(c3ccc(C4=N[C@@H](C)c5nnc(C)n5-c5sc(C)c(C)c54)cc3)CC2)CC1 [III-288] | 50 to 500 | 500 to 2500 | 50 to 500
13 | Cc1sc2c(c1C)C(c1ccc(N3CCC(O)(CN4CCN(c5ccc([C@@H]6c7ccc(O)cc7CC[C@@H]6c6cccc(F)c6)c(F)c5)CC4)CC3)cc1)=N[C@@H](C)c1nnc(C)n1-2 [III-289] | < 50 | 500 to 2500 | < 50
14 | Cc1sc2c(c1C)C(c1ccc(N3CCC(O)(CN4CCN(c5ccc([C@H]6c7ccc(O)cc7CC[C@H]6c6cccc(F)c6)c(F)c5)CC4)CC3)cc1)=N[C@@H](C)c1nnc(C)n1-2 [III-290] | 50 to 500 | 50 to 500 | < 50
15 | Cc1sc2c(c1C)C(c1ccc(N3CCC(O)(CN4CCN(c5ccc([C@@H]6c7ccc(O)cc7CC[C@@H]6c6ccccc6F)c(F)c5)CC4)CC3)cc1)=N[C@@H](C)c1nnc(C)n1-2 [III-291] | < 50 | 500 to 2500 | < 50
16 | Cc1sc2c(c1C)C(c1ccc(N3CCC(O)(CN4CCN(c5ccc([C@H]6c7ccc(O)cc7CC[C@H]6c6ccccc6F)c(F)c5)CC4)CC3)cc1)=N[C@@H](C)c1nnc(C)n1-2 [III-292] | 50 to 500 | 50 to 500 | 50 to 500
17 | Cc1sc2c(c1C)C(c1ccc(N3CCC(O)(CN4CCN(c5ccc([C@@H]6c7ccc(O)cc7CC[C@@H]6c6c(F)cccc6F)c(F)c5)CC4)CC3)cc1)=N[C@@H](C)c1nnc(C)n1-2 [III-293] | < 50 | 500 to 2500 | < 50

Row | SMILES | GI50 [1] [nM] | GI50 [2] [nM] | GI50 [3] [nM]
18 | Cc1sc2c(c1C)C(c1ccc(N3CCC(O)(CN4CCN(c5ccc([C@H]6c7ccc(O)cc7CC[C@H]6c6c(F)cccc6F)c(F)c5)CC4)CC3)cc1)=N[C@@H](C)c1nnc(C)n1-2 [III-294] | 50 to 500 | 50 to 500 | 50 to 500
19 | Cc1sc2c(c1C)C(c1ccc(N3CC4(CC(CN5CCN(c6cc(F)c([C@H]7c8ccc(O)cc8CC[C@H]7c7ccc(F)cc7)c(F)c6)CC5)C4)C3)cc1)=N[C@@H](C)c1nnc(C)n1-2 [III-295] | 50 to 500 | 500 to 2500 | 500 to 2500
20 | Cc1sc2c(c1C)C(c1ccc(N3CC4(CC(CN5CCN(c6cc(F)c([C@@H]7c8ccc(O)cc8CC[C@@H]7c7ccc(F)cc7)c(F)c6)CC5)C4)C3)cc1)=N[C@@H](C)c1nnc(C)n1-2 [III-296] | 50 to 500 | 500 to 2500 | 50 to 500
21 | Cc1cc(N2CCN(CC3(O)CCN(c4ccc(C5=N[C@@H](C)c6nnc(C)n6-c6sc(C)c(C)c65)cc4)CC3)CC2)ccc1[C@H]1c2ccc(O)cc2CC[C@H]1c1ccc(F)cc1 [III-297] | 50 to 500 | 50 to 500 | 50 to 500
22 | Cc1cc(N2CCN(CC3(O)CCN(c4ccc(C5=N[C@@H](C)c6nnc(C)n6-c6sc(C)c(C)c65)cc4)CC3)CC2)ccc1[C@@H]1c2ccc(O)cc2CC[C@@H]1c1ccc(F)cc1 [III-298] | 50 to 500 | 50 to 500 | 50 to 500
23 | Cc1sc2c(c1C)C(c1ccc(N3CCC(O)(CN4CCN(c5cc(F)c([C@@H]6c7ccc(O)cc7CC[C@@H]6c6ccccc6)cc5F)CC4)CC3)cc1)=N[C@@H](Cc1ncco1)c1nnc(C)n1-2 [III-299] | < 50 | 50 to 500 | < 50
24 | Cc1sc2c(c1C)C(c1ccc(N3CCC(O)(CN4CCN(c5cc(F)c([C@H]6c7ccc(O)cc7CC[C@H]6c6ccccc6)cc5F)CC4)CC3)cc1)=N[C@@H](Cc1ncco1)c1nnc(C)n1-2 [III-300] | 50 to 500 | 50 to 500 | < 50
25 | Cc1sc2c(c1C)C(c1ccc(N3CCC(O)(CN4CCN(c5ccc([C@H]6c7ccc(O)cc7CC[C@H]6c6ccc(F)cc6)cc5Cl)CC4)CC3)cc1)=N[C@@H](C)c1nnc(C)n1-2 [III-301] | 50 to 500 | 500 to 2500 | 500 to 2500
26 | Cc1sc2c(c1C)C(c1ccc(N3CCC(O)(CN4CCN(c5ccc([C@@H]6c7ccc(O)cc7CC[C@@H]6c6ccc(F)cc6)cc5Cl)CC4)CC3)cc1)=N[C@@H](C)c1nnc(C)n1-2 [III-302] | 50 to 500 | 500 to 2500 | 50 to 500
27 | Cc1sc2c(c1C)C(c1ccc(N3CCC(O)(CN4CCN(c5cc(F)c([C@H]6c7ccc(O)cc7CC[C@H]6c6ccccc6)cc5F)CC4)CC3)cc1F)=N[C@@H](C)c1nnc(C)n1-2 [III-303] | 50 to 500 | 50 to 500 | 50 to 500
28 | Cc1sc2c(c1C)C(c1ccc(N3CCC(O)(CN4CCN(c5cc(F)c([C@@H]6c7ccc(O)cc7CC[C@@H]6c6ccccc6)cc5F)CC4)CC3)cc1F)=N[C@@H](C)c1nnc(C)n1-2 [III-304] | < 50 | 500 to 2500 | < 50
29 | Cc1sc2c(c1C)C(c1ccc(N3CCC(O)(CN4CCN(c5ccc([C@@H]6c7ccc(O)cc7CC[C@@H]6c6ccc(F)cc6)c(Cl)c5)CC4)CC3)cc1)=N[C@@H](C)c1nnc(C)n1-2 [III-305] | < 50 | 500 to 2500 | < 50
30 | Cc1sc2c(c1C)C(c1ccc(N3CCC(O)(CN4CCN(c5ccc([C@H]6c7ccc(O)cc7CC[C@H]6c6ccc(F)cc6)c(Cl)c5)CC4)CC3)cc1)=N[C@@H](C)c1nnc(C)n1-2 [III-306] | 50 to 500 | 500 to 2500 | 50 to 500
31 | COc1cc(N2CCN(CC3(O)CCN(c4ccc(C5=N[C@@H](C)c6nnc(C)n6-c6sc(C)c(C)c65)cc4)CC3)CC2)ccc1[C@H]1c2ccc(O)cc2CC[C@H]1c1cccc(F)c1 [III-309] | 50 to 500 | 50 to 500 | 50 to 500
32 | COc1cc(N2CCN(CC3(O)CCN(c4ccc(C5=N[C@@H](C)c6nnc(C)n6-c6sc(C)c(C)c65)cc4)CC3)CC2)ccc1[C@@H]1c2ccc(O)cc2CC[C@@H]1c1cccc(F)c1 [III-310] | < 50 | 500 to 2500 | < 50
33 | Cc1sc2c(c1C)C(c1ccc(N3CCC(CN4CCN(c5cc(F)c([C@@H]6c7ccc(O)cc7CC[C@@H]6c6ccccc6)cc5F)CC4)CC3)cc1)=N[C@@H](C)c1nnc(C)n1-2 [III-317] | 50 to 500 | 50 to 500 | < 50
34 | Cc1sc2c(c1C)C(c1ccc(N3CCC(CN4CCN(c5cc(F)c([C@H]6c7ccc(O)cc7CC[C@H]6c6ccccc6)cc5F)CC4)CC3)cc1)=N[C@@H](C)c1nnc(C)n1-2 [III-318] | 50 to 500 | 50 to 500 | 50 to 500
